Measurements reported in US20120108607A1, “OPTICALLY ACTIVE 3-[(PHENYLPIPERAZIN-1-YL)ALKYL]-3- ALKYL-OXINDOLE DERIVATIVES HAVING CNS ACTIVITY” (priority 2009, published 2012).
Several values for one entry are separate records, joined by “and”; a condition that tells them apart may be missing. Identical values can stand only once. Entries after “also recorded” stand apart in the source; their conditions may differ.

How the values were obtained:
[1] = molecular target: T1, cloned human 5-HT6 receptors (Homo sapiens, UniProt P50406); experiment: receptor-binding assay, 5-HT6 (3H-LSD, HEK 293 cells); conditions: for Ki: 3H-LSD 2.7 nM, HEK 293 cells
T1 construct: expressed in transfected cells
Experimental: (§1) In the receptor-binding assays, brain tissues from male Wistar rats weighing 120-200 g or cloned human 5-HT6 or D4 receptors were used. The protein contents of the membrane preparates were determined according to Lowry (Lowry O. H., Rosenbrough N. J., Farr A. L., Randall R. J., Protein measurement with the Folin-Phenol reagents. J Biol Chem, 193: 265-275 (1951).
(§2) The basic information with regard the receptor-binding assay is disclosed in Table 1. The binding assays were carried out according to the method of Leysen (Leysen J. E, Niemegeers C. J. E, Van Nueten J. M., Laduron P. M.: ^[3H]Ketanserin (R41468), a selective ^[3H]ligand for Serotonine2 receptor binding. Mol Pharmacol, 21: 301-314 (1981)). The tested compound was deemed to be effective in the case when the Ki value was smaller than 100 nM.

5-HT2A receptors = molecular target: T2, 5-HT2A receptors (Rattus norvegicus, UniProt P14842); experiment: receptor-binding assay, 5-HT2A (3H-ketanserine, frontal cortex); conditions: for Ki: 3H-ketanserine 1.0 nM, frontal cortex
T2 construct: brain tissues from male Wistar rats weighing 120-200 g; from tissue
Source text: In the receptor-binding assays, brain tissues from male Wistar rats weighing 120-200 g or cloned human 5-HT6 or D4 receptors were used.
The basic information with regard the receptor-binding assay is disclosed in Table 1.

[2] = molecular target: T3, cloned human D4 receptors (Homo sapiens, UniProt P21917); experiment: receptor-binding assay, D4 (3H-YM-09151-2, SF9 cells); conditions: for Ki: 3H-YM-09151-2 0.28 nM, SF9 cells
T3 construct: expressed in transfected cells
T3 sequence (P21917 1-419): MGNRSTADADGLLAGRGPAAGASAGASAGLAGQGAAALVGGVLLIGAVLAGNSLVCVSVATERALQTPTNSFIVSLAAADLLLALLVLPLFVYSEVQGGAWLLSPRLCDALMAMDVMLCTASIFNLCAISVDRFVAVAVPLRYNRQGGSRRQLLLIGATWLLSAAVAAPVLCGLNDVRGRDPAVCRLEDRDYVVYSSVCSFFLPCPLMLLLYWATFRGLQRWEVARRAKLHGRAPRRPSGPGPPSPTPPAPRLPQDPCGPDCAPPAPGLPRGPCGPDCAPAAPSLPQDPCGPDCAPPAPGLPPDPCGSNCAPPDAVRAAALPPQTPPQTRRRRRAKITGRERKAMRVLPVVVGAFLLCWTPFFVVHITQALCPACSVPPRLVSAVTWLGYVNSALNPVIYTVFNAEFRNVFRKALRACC
Experimental: as §1, §2

male Wistar rats = experiment: Vogel's drinking conflict model (anxiolytic effect); type: in vivo, rat; conditions: ip., 30 minutes before the test, MED = minimum dose resulting in statistically significant effect
Experimental: Vogel's drinking conflict model was used for establishing the anxiolytic effect (Vogel at el., Psychopharmacologia, 21, 1, 1971). Male Wistar rats weighing 200 to 220 grams were restrained from drinking for 48 hours and deprived from feed for 24 hours prior to the experiment. The test substances or the vehicle were administered to the animals in a dose of 5.0-10.0-20.0 mg/kg intraperitoneally 30 minutes before the test. The test chamber was provided with a drinking tube which allowed the animals to drink. However, after each twentieth licking, the apparatus delivered a 0.7 mA electric shock to the animal. During the five-minute measurement period, the number of electric shocks was registered which the animals tolerated to appease their thirst. The effect of the test substance was expressed in the percentage increase in the number of tolerated electric shocks. The minimum effective dose (MED) was determined for each compound.

male DBA mice = experiment: Porsolt's test (antidepressant effect); type: in vivo, mouse; conditions: for Porsolt-test (model for antidepressant effect), MED: ip., 30 minutes before the test, p<0.05
Experimental: The antidepressant effect of the compounds of the Formula (I) has been established in Porsolt's test in male DBA mice weighing 20 to 25 grams. The swimming experiment was carried out in cylinders of 17.7 cm height and 12 cm diameter (Porsolt, R. D.: Behavioral despair. In: Enna, S. J., Malick, J. B., and Richelson, E. (eds.): “Antidepressants: Neurochemical, Behavioral, and Clinical Prespectives.” New York: Raven Press, 1981. pp. 121-139). In each experiment, four cylinders were used simultaneously. The animals were treated 30 minutes before the test with the test substances or with the vehicle in the dose of 1-3-10 mg/kg i.p. Animals were allowed to stay in the cylinder for six minutes. In the first two minutes, no measurement was made since this period was considered as the adaptation period. In the following four minutes (minutes 3 to 6 of the experiment) the time spent in immobile state was determined. The immobile time was registered for each animal with a precision of one second. The average was calculated for each group and the percentage effect was calculated for each treated group with reference for the control group. The statistical significance of the differences between groups was analyzed by […].
On the basis of the statistical significance determined for the difference of each dose from the control, MED (minimum effective dose) values were calculated. […] A significant decrease of time spent in immobility was interpreted as an antidepressant effect.

male NMRI mice = experiment: permanent focal cerebral ischemia model (neuroprotective effect); type: in vivo, mouse; conditions: ip., 30 minutes after surgery
Experimental: The neuroprotective effect of the compounds of the Formula (I) was tested in the permanent focal cerebral ischemia model according to the modified method of Karkoutly and coworkers (Karkoutly, C., Backhauss, C., Nuglisch, J., Krieglstein, J.: The measurement of the infarcted area after middle cerebral artery occlusion in the mouse: a screening model. In Krieglstein, J., Oberpichler, H. ed. Pharmacology of Cerebral Ischemia 1990. Wissenschaftliche Verlagsgesellschaft mbH Stuttgart. 63-69 (1990).).
Male NMRI mice weighing 30 to 35 grams were anesthetized with 2,2,2-tribromoethanol administered intraperitoneally in the dose of 500 mg/kg (20 ml/kg). During anesthesia, surgery was performed according to the surgical protocol of Welsh and coworkers (Welsh, F. A., Sakamoto, T., McKee, A., Sims, R. E.: Effect of lactacidosis on pyridine nucleotide stability during ischemia in mouse. J. Neurochem. 49: 846-851 (1987)). The distal part of the middle […] artery (MCA) was occluded with electric cauter. Test compounds were administered intraperitoneally 30 minutes after surgery in the dose of 0.1-0.3-1.0-3.0-10.0 mg/kg). After 48 hours, mice were anesthetised by 120 mg/kg sodium pentobarbital intraperitoneally. The brains were perfused through the left ventricle with 2 ml of 4% 2,3,5-triphenyl-tetrazolium-chloride (TTC) solution. After one hour, the brains was removed and placed into ice-cool saline for one to two minutes. Subsequently the brains were placed into 8% aqueous formaldehyde solution. After 24 hours, the area of white lesions was determined by a computerized image analysis software. The statistical evaluation was performed by variance analysis followed by Duncan-test.

T2 sequence (P14842 whole entry): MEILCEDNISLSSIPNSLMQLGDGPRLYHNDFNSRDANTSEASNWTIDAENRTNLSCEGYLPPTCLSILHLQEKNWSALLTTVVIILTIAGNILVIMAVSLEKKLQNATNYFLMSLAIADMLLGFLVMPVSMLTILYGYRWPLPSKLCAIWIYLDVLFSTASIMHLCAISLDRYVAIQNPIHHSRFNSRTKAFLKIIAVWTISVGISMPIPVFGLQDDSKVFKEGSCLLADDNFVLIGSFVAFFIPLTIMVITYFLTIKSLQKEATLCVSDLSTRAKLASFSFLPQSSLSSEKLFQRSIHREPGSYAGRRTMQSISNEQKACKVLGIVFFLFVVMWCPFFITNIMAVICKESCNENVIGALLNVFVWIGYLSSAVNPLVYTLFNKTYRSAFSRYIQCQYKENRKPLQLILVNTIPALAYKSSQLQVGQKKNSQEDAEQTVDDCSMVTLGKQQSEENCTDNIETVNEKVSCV
T1 sequence (P50406 whole entry): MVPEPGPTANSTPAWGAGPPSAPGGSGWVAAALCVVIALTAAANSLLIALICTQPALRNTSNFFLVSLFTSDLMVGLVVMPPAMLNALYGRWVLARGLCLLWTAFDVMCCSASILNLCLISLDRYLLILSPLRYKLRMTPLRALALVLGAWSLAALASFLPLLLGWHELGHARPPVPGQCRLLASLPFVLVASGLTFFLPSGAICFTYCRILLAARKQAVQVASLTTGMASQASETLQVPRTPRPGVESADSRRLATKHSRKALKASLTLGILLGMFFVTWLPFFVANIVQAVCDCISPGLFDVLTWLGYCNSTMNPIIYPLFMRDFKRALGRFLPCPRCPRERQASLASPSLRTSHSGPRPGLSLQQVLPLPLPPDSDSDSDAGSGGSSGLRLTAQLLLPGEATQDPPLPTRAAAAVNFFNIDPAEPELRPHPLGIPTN

Compound | affinity towards central 5-HT6 receptors (in words) [1] | Ki [1] [nM] | Ki (5-HT2A receptors) [nM] | Ki [2] [nM] | Vogel-test (model for anxiolytic effect), MED (male Wistar rats) | Porsolt-test (model for antidepressant effect), MED (male DBA mice) | Permanent cerebral ischemia model (model for neuroprotective effect), MED (male NMRI mice) | melting point [°C] | affinity to the central 5-HT2A receptors (in words) (5-HT2A receptors) | affinity to the central D4 receptors (in words) [2] | Vogel-test (model for anxiolytic effect), MED (male Wistar rats; listed as (−)-5,7-dichloro-3-{4-[4-(4-chlorophenyl)-piperazin-1-yl]butyl}-3-ethyl-1,3-dihy) | antidepressant activity in Porsolt's test (in words) (male DBA mice; mice)
CCC1(CCCCN2CCN(c3ccc(Cl)cc3)CC2)C(=O)Nc2c(Cl)cc(Cl)cc21 (single isomer, unassigned; (+)) [(+)-enantiomer of the Formula (I), (+)-5,7-dichloro-3-{4-[4-(4-chlorophenyl)-piperazin-1-yl]butyl}-3-ethyl-1,3-dihydro-2H-indol-2-one] | significant affinity | 11 | > 200 | 35 | 10 mg/kg | No effect | ineffective; also recorded: No effect | 139 to 141 |  |  |  | 
CCC1(CCCCN2CCN(c3ccc(Cl)cc3)CC2)C(=O)Nc2c(Cl)cc(Cl)cc21 (single isomer, unassigned; (-)) [(−)-enantiomer of the Formula (I), (−)-5,7-dichloro-3-{4-[4-(4-chlorophenyl)-piperazin-1-yl]-butyl}-3-ethyl-1,3-dihydro-2H-indol-2-one] | not bound |  | 42 | 13 | No effect | No effect | 3 mg/kg and 3.0 mg/kg | 139 to 140 | affinity greater by several orders of magnitude | significant affinity | did not show any anxiolytic effect | 
CCC1(CCCCN2CCN(c3ccc(Cl)cc3)CC2)C(=O)Nc2c(Cl)cc(Cl)cc21 (racemic) [Compound of the Formula (II), 5,7-dichloro-3-{4-[4-(4-chlorophenyl)-piperazin-1-yl]butyl}-3-ethyl-1,3-dihydro-2H-indol-2-one] | significant affinity | 9 | 50 | > 100 | 5 mg/kg | 3 mg/kg | 0.1 mg/kg | 152 to 154 | affinity greater by several orders of magnitude | did not show any significant binding |  | significant, dose-dependent antidepressant activity
